# Results from patent US20030166622A1, “Vitamin D derivatives with acyloxy groups in the side chains, process for their production, and the use for the production of pharmaceutical agents” (Schering AG, priority 2001, published 2003).
# Entries after “also recorded” stand apart in the source; their conditions may differ.
# How the values were obtained:
# [1] = DNFB-induced allergic contact allergy in the mouse (DNFB-DTH); format: in vivo; conditions: for DR (Hypercalcemic threshold dose/ immunosuppressive threshold dose): therapeutic range, mouse, once daily intragastrically around sensitization, calcium level in urine as side-effect parameter; for activity in vivo (prevention of the formation of edemas): contact allergy in the mouse
# From the text: 58, 179-204 (1999)]. The model of the dinitrofluorobenzene (DNFB)-induced allergic contact allergy in the mouse represents an inflammatory skin disease with the background of an inflammatory reaction of the delayed type (delayed type hypersensitivity; DTH). The inflammatory phase of the contact allergy is triggered by a multi-phase reaction. A repeated contact with the topically effective contact allergen DNFB (25 il of a 0.5% (w/v) DNFB solution in acetone/olive oil 4:1 [v/v] on the shaved abdomen with a surface area of about 10 cm^2 on test days 0. and 1.) triggers an immune reaction, which results in the sensitization of the animals against the specific agent, without “visible” symptoms occurring. Only after a sensitization time of 4-5 days, in which populations of DNFB-specific lymphocytes of “memory” type have formed in the draining lymph nodes, can a renewed contact (20 il of a 0.5% (w/v) DNFB solution in acetone/olive oil 4:1 [v/v]) trigger an inflammatory skin reaction with the contact allergen at any skin area (here: on both ears, treated surface area/ear about 2 cm^2). This second phase, which is also referred to as the trigger or “challenge,” ends in an eczematous lesion on the second contact site. The evaluation of the extent of the inflammatory reaction or the success of treatment is performed routinely 24 hours after the triggering, since at this time, the parameters that are to be analyzed (ear thickness and cell infiltration as a yardstick for the edema) have reached a plateau. The model of the DNFB-induced contact allergy allows the examination of the action of systemically or topically administered test substances with immunosuppressive/immunomodulating or inflammation-inhibiting properties. In the study on immunomodulating properties of calcitriol derivatives, the latter are administered once daily intragastrically in physiological common salt solution (0.9% NaCl) with an admixture of 0.085% Myrj 53) around the time of sensitization (beginning two days before and one day before sensitization, on the day of sensitization and on day 1 and 2 after sensitization). As side-effect parameters that are typical of vitamin D, the determination of the calcium level in the urine of the treated animals is used at the latest 24 hours after the last treatment with the substance. The calcium content is determined by flame-photometry. The significance of differences occurring between substance groups and controls as well as between test substance and reference substance are supported with suitable statistic processes. The therapeutic range of the test substances and calcitriol as a reference substance is indicated as a dose ratio DR (DR=factor of hypercalcemic threshold dose/immunosuppressive threshold dose).
# HL 60 cells = assay: differentiation induction of HL 60 cells to macrophages (NBT reduction); format: cell-based, human; conditions: relative to calcitriol; 96 hours incubation
# Procedure: The differentiation-stimulating action of calcitriol analogs is also detected quantitatively.
# It is known in the literature [D. J. Mangelsdorf et al., J. Cell. Biol. 98, 391 (1984)] that the treatment of human leukemia cells (promyelocyte cell line HL 60) in vitro with calcitriol induces the differentiation of cells to macrophages.
# HL 60 cells are cultivated in tissue culture medium (RPMI 10% fetal calf serum) at 37° C. in an atmosphere of 5% CO2 in air.
# For substance testing, the cells are centrifuged off, and 2.0×10^5 cells/ml in phenol red-free tissue culture medium are taken up. The test substances are dissolved in ethanol and diluted to the desired concentration with tissue culture medium without phenol red. The dilution stages are mixed with the cell suspension at a ratio of 1:10, and 100 il each of this cell suspension that is mixed with substance is pipetted into an indentation of a 96-hole plate. For control, a cell suspension is mixed analogously with the solvent.
# After incubation for 96 hours at 37° C. in 5% CO2 in air, 100 il of an NBT-TPA solution (nitro blue tetrazolium (NBT), final concentration in the batch of 1 mg/ml, tetradecanoyl phorbolmyristate-13-acetate (TPA), final concentration in the batch of 2×10^−7 mol/l) is pipetted into each indentation of the 96-hole plate in the cell suspension.
# By incubation for 2 hours at 37° C. and 5% CO2 in air, NBT is reduced to insoluble formazan because of the intracellular oxygen radical release, stimulated by TPA, in the cells that are differentiated to macrophages.
# To complete the reaction, the indentations of the 96-hole plate are suctioned off, and the cells are affixed to the bottom of the plate by adding methanol and dried after affixing. To dissolve the intracellular formazan crystals that are formed, 100 il of potassium hydroxide (2 mol/l) and 100 il of dimethyl sulfoxide are pipetted into each indentation and ultrasonically treated for 1 minute. The concentration of formazan is measured by spectrophotometry at 650 nm.
# As a yardstick for the differentiation induction of HL 60 cells to macrophages, the concentration of formed formazan applies.
# [2] = acute hypercalcemic action in rats (serum calcium after one-time subcutaneous administration); format: in vivo, rat; conditions: relative to calcitriol, male rats
# Procedure: To determine the acute hypercalcemic action of various calcitriol derivatives, the test that is described below is carried out:
# The action of control (solution base), reference substance (1,25-dihydroxy vitamin D3=calcitriol) and test substance is tested in each case after one-time subcutaneous administration in groups of 10 healthy male rats (140-170 g). During the testing time, the rats are kept in special cages to determine the excretion of water and mineral substances. Urine is collected in 2 fractions (0-16 hours and 16-22 hours). An oral dose of calcium (0.1 mmol of calcium in 6.5% alpha-hydroxypropyl cellulose, 5 ml/animal) replaces at 1600 hours the calcium intake that is lacking by food deprivation. At the end of the test, the animals are sacrificed by decapitation and exsanguinated to determine the serum-calcium values. For the primary screening test in vivo, an individual standard dose (200 ig/kg) is tested. For selected substances, the result is supported by establishing a dose-effect relation.
# A hypercalcemic action is shown in serum-calcium level values that are higher than in the control.
# The significance of differences occurring between substance groups and controls as well as between test substance and reference substance are supported with suitable statistical processes.
# vitamin D receptor = biological target: T1, vitamin D receptor (Sus scrofa, UniProt A3RGC1); assay: calcitriol-receptor test (competition with 3H-calcitriol, protein extract from intestines of juvenile pigs); conditions: for KF (competition factor: concentration of test substance / reference substance at 50% competition): relative to unlabeled calcitriol, 3H-calcitriol 5x10^-10 mol/l, 2 hours at 4° C; for activity in vitro: result in words, summary of the in vitro tests of the table (calcitriol-receptor test and HL 60)
# T1 sequence (A3RGC1 1-427): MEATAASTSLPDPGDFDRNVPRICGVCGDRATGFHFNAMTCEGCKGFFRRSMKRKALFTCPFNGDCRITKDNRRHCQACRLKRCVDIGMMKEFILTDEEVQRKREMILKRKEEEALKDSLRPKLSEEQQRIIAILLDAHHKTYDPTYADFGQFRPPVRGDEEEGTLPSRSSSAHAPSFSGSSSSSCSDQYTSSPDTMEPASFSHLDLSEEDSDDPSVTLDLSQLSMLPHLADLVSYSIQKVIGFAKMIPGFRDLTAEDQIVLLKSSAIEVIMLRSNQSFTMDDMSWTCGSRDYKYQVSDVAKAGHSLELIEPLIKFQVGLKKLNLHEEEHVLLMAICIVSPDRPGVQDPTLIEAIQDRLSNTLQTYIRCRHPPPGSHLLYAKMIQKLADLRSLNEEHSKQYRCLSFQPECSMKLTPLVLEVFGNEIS
# Procedure: It is carried out using a protein extract from the intestines of juvenile pigs. […] To this end, 250 il of a charcoal-dextran suspension is fed to each test tube and incubated at 4° C. for 20 minutes. Then, the samples are centrifuged at 10,000 g for 5 minutes at 4° C. The supernatant is decanted and measured in a á-counter after 1 hour of equilibration in Picofluor 15™.
# The competition curves that are obtained at various concentrations of test substance as well as of reference substance (unlabeled calcitriol) at constant concentration of the reference substance (^3H-calcitriol) are placed in relation to one another, and a competition factor (KF) is determined.
# It is defined as a quotient of the concentrations of the respective test substance and the reference substance, which are necessary for 50% competition:
# KF=Concentration of test substance at 50% competition
# Concentration of reference substance at 50% competition
"DR (Ca) (dose ratio for hypercalcemia, test substance dose/reference substance dose for comparable actions) [2]",KF (competition factor: concentration of test substance / reference substance at 50% competition) (vitamin D receptor),Compound,DR (Hypercalcemic threshold dose/ immunosuppressive threshold dose) [1],DR (HL 60) (dose ratio test substance/reference substance for comparable semi-maximum actions) (HL 60 cells),activity in vivo (prevention of the formation of edemas) ([1]; result in words),activity in vitro (vitamin D receptor),"therapeutic range (immunosuppressive threshold dose versus hypercalcemic threshold dose) ([1]; result in words, relative to compounds that have free hydroxy groups in the side chain)"
–,–,"C=C1C(=CC=C2CCCC3(C)C2CCC3C(C)C=CC(O)C2(c3ncc(CCCC)o3)CC2)CC(O)CC1O [(5Z,7E,22E)-(1S,3R,24R)-25-(5-butyloxazole-2-yl)-26,27-cyclo-9,10-secocholesta-5,7,10(19),22-tetraene-1,3,24-triol, reference compound]","1,000",–,–,–,–
300,2,"C=C1/C(=C\C=C2/CCC[C@]3(C)[C@@H]([C@H](C)/C=C/[C@@H](O)C4(c5ncc(CCC)o5)CC4)CC[C@@H]23)C[C@@H](O)C[C@@H]1O [A, (5Z,7E,22E)-(1S,3R,24R)-25-(5-Propyloxazole-2-yl)-26,27-cyclo-9,10-secocholesta-5,7,10(19),22-tetraene-1,3,24-triol]",–,1.9,–,–,–
>300,2,"C=C1/C(=C\C=C2/CCC[C@]3(C)[C@@H]([C@H](C)/C=C/[C@@H](O)C4(c5ncc(C)o5)CC4)CC[C@@H]23)C[C@@H](O)C[C@@H]1O [B, (5Z,7E,22E)-(1S,3R,24R)-25-(5-Methyloxazole-2-yl)-26,27-cyclo-9,10-secocholesta-5,7,10(19),22-tetraene-1,3,24-triol]",–,3.4,–,–,–
>300,3,"C=C1C(=CC=C2CCCC3(C)C2CCC3C(C)C=CC(O)C2(c3ncc(CC)o3)CC2)CC(O)CC1O [C, (5Z,7E,22E)-(1S,3R,24R)-25-(5-Ethyloxazole-2-yl)-26,27-cyclo-9,10-secocholesta-5,7,10(19),22-tetraene-1,3,24-triol]",–,1.3,–,–,–
1,–,"C=C1/C(=C\C=C2/CCC[C@]3(C)[C@@H]([C@H](C)CCCC(C)(C)O)CC[C@@H]23)C[C@@H](O)C[C@@H]1O [Calcitriol, 1,25-dihydroxy vitamin D3]",1,1,–,–,–
>1000,>100,C=C1/C(=C\C=C2/CCC[C@]3(C)[C@@H]([C@H](C)CC[C@@H](OC(=O)C(C)(C)C)C4(c5ncc(CCCC)o5)CC4)CC[C@@H]23)C[C@@H](O)C[C@@H]1O [Compound 5b],"20,000",>170,therapeutically active in vivo,inactivity; also recorded: deficient activity,–
–,–,"C=C1/C(=C\C=C2/CCC[C@]3(C)[C@@H]([C@H](C)CC[C@@H](OC(=O)NC)C4(c5ncc(CCCC)o5)CC4)CC[C@@H]23)C[C@@H](O)C[C@@H]1O [Compound 11b, (5Z,7E)-(1S,3R,24R)-25-(5-Butyloxazole-2-yl)-24-[[(methylamino)-carbonyl]oxy]-26,27-cyclo-9,10-secocholesta-5,7,10(19)-triene-1,3-diol]",–,–,–,–,clearly improved
>300,4,"C=C1/C(=C\C=C2/CCC[C@]3(C)[C@@H]([C@H](C)/C=C/[C@@H](O)C4(c5ncc(CCCCC)o5)CC4)CC[C@@H]23)C[C@@H](O)C[C@@H]1O [D, (5Z,7E,22E)-(1S,3R,24R)-25-(5-Pentyloxazole-2-yl)-26,27-cyclo-9,10-secocholesta-5,7,10(19),22-tetraene-1,3,24-triol]",–,>100,–,–,–

Compound,"DR (Ca) (dose ratio for hypercalcemia, test substance dose/reference substance dose for comparable actions) [2]",KF (competition factor: concentration of test substance / reference substance at 50% competition) (vitamin D receptor),DR (Hypercalcemic threshold dose/ immunosuppressive threshold dose) [1],DR (HL 60) (dose ratio test substance/reference substance for comparable semi-maximum actions) (HL 60 cells),activity in vivo (prevention of the formation of edemas) ([1]; result in words),activity in vitro (vitamin D receptor),"therapeutic range (immunosuppressive threshold dose versus hypercalcemic threshold dose) ([1]; result in words, relative to compounds that have free hydroxy groups in the side chain)"
"C=C1/C(=C\C=C2/CCC[C@]3(C)[C@@H]([C@H](C)CC[C@H](OC(C)=O)C4(c5ncc(CCCC)o5)CC4)CC[C@@H]23)C[C@@H](O)C[C@@H]1O [Compound 3a, (5Z,7E)-(1S,3R,24S)-24-Acetoxy-25-(5-butyloxazole-2-yl)-26,27-cyclo-9,10-secocholesta-5,7,10(19)-triene-1,3-diol]",>1000,>100,–,>170,therapeutically active in vivo,inactivity; also recorded: deficient activity,–
"C=C1/C(=C\C=C2/CCC[C@]3(C)[C@@H]([C@H](C)CC[C@@H](OC(C)=O)C4(c5ncc(CCCC)o5)CC4)CC[C@@H]23)C[C@@H](O)C[C@@H]1O [Compound 3b, (5Z,7E)-(1S,3R,24R)-24-(Acetoxy)-25-(5-butyloxazole-2-yl)-26,27-cyclo-9,10-secocholesta-5,7,10(19)-triene-1,3-diol]",>1000,>100,–,>170,therapeutically active in vivo,inactivity; also recorded: deficient activity,–
